Like-named read-outs stand apart in the source and are kept apart here. *1 amine or outer side, *2 acyl side, *3 side chain or, on linkers, in order; H or OH if unused. Where a SMILES comes first, the peptide text is derived from it. [ ]: non-standard residue; d: D form. The star is where a group is joined. ξ: configuration not given here. Decanoyl(3ξ-OH) = CCCCCCCC(O)CC(=O)*; X1 = CC=C(N[*:1])C(=O)[*:2] Where only a bound is given, the exact number is not on record here.

Assay type in all cases: cell-based
One series relates to HCT116. Put plainly: Cytotoxic activity assay. Particulars: Homo sapiens, HCT-116, read-out: cytotoxic activity IC50, HCT116.
Series [1] relates to Pseudomonas aeruginosa ATCC 27853. Briefly: Antibacterial activity assay. Particulars: ATCC27853; Gram-negative bacterium Pseudomonas aeruginosa ATCC 27853.
The next series can be described thus: Cytotoxic activity assay. As to conditions: human, normal cell line 293T.
The next series deals with A549. Put plainly: Cytotoxic activity assay. Particulars: human lung adenocarcinoma cell A549.
Another series relates to Hela. Briefly: Cytotoxic activity assay. Particulars: human cervix epithelioid carcinoma Hela.
Series [2] has as its system Staphylococcus aureus ATCC 29213. Put plainly: Antibacterial activity assay. Particulars: ATCC29213; Gram-positive bacterium Staphylococcus aureus ATCC 29213.
In series [3] the test system is Escherichia coli ATCC 35218. Briefly: Antibacterial activity assay. As to conditions: ATCC35218.
The next series has as its system HepG-2. Put plainly: Cytotoxic activity assay. As to conditions: HepG2; human hepatoma cell HepG-2.
For another series, the system named is MCF-7. Put plainly: Cytotoxic activity assay. Particulars: human breast adenocarcinoma cells MCF7.
Series [4] has as its system Bacillus subtilis ATCC 6633. Briefly: Antibacterial activity assay. As to conditions: ATCC6633; Gram-positive bacterium Bacillus subtilis ATCC 6633.
The subject of another series is K562. Put plainly: Cytotoxic activity assay. Particulars: human hematological disease cells K562.
Where [5] appears, read: Gram-negative bacterium Escherichia coli ATCC 35218, read-out: MIC.

As to `CC=C(NC(=O)CC(O)CCCCCCC)C(=O)N1CCCC1C(=O)NC(CCC(N)=O)C(=O)NC(C)C(=O)NC(C(=O)NC(Cc1ccccc1)C(=O)N1CCCC1C(=O)O)C(C)C` (stereo not shown) [Compound 1, Burriogladiodin A] ({Decanoyl(3ξ-OH)}-[X1]PQAVFP-OH; configuration not given here), the IC50 with HCT116 was more than 20 µM; in the series “Cytotoxic activity assay”, 29.4 ± 0.85 µM; in the series with A549 it was more than 20 µM; in the series on Hela, more than 20 µM; in the series on HepG-2, more than 20 µM; with MCF-7, more than 20 µM. Also, the IC50 in the series on K562 is more than 20 µM. In addition, the MIC in series [1], in [2], in series [3] (Escherichia coli) and in [4] was more than 100 µM each time.
Regarding `CC=C(NC(=O)CC(O)CCCCCCC)C(=O)N1CCCC1C(=O)NC(CCC(N)=O)C(=O)NC(C)C(=O)NC(C(=O)NC(Cc1ccccc1)C(=O)N1CCCC1C(=O)NC(C(=O)O)C(C)O)C(C)C` (stereo not shown) [Compound 2, Burriogladiodin B] ({Decanoyl(3ξ-OH)}-[X1]PQAVFPT-OH; configuration not given here), the half-inhibitory concentration (IC50) in the series with HCT116 is more than 20 µM; in the series “Cytotoxic activity assay”, more than 40 µM; in the series on A549, more than 20 µM; in the series on Hela, more than 20 µM; in the series with HepG-2, more than 20 µM; with MCF-7, more than 20 µM. This compound yielded an IC50 in the series with K562 of more than 20 µM. The MIC in series [1], in [2], in series [3] (Escherichia coli) and in series [4] was more than 100 µM throughout.
For `CC=C(NC(=O)CC(O)CCCCCCC)C(=O)N1CCCC1C(=O)NC(CCC(N)=O)C(=O)NC(C)C(=O)NC(C(=O)NC(Cc1ccccc1)C(=O)O)C(C)C` (stereo not shown) [Compound 5, Burriogladiodin E] ({Decanoyl(3ξ-OH)}-[X1]PQAVF-OH; configuration not given here), the IC50 is more than 20 µM with HCT116; 24.9 ± 0.96 µM in the series “Cytotoxic activity assay”; more than 20 µM with A549; more than 20 µM with Hela; more than 20 µM in the series on HepG-2; more than 20 µM in the series with MCF-7. In addition, in the series with K562, the IC50 is more than 20 µM. For the same compound, the MIC in [1], in series [2], in series [3] (Escherichia coli) and in series [4] was more than 100 µM each time.
`CC=C(NC(=O)CC(O)CCCCCCC)C(=O)N1CCCC1C(=O)NC(CCC(N)=O)C(=O)NC(C)C(=O)NC(C)C(=O)NC(Cc1ccccc1)C(=O)O` (stereo not shown) [Compound 8, Burriogladiodin H] ({Decanoyl(3ξ-OH)}-[X1]PQAAF-OH; configuration not given here): the 50% inhibitory concentration (IC50) with HCT116 is more than 20 µM; in “Cytotoxic activity assay”, more than 40 µM; in the series with A549 it was more than 20 µM; with Hela it was more than 20 µM; in the series on HepG-2, more than 20 µM; with MCF-7 it was more than 20 µM. Further, the IC50 in the series with K562 was more than 20 µM. In addition, the MIC in [1], in series [2], in [3] (Escherichia coli) and in [4] was more than 100 µM each time.
As to `CC=C(NC(=O)CCCCCCC)C(=O)NC(=CC)C(=O)NC(Cc1ccc(O)cc1)C(=O)NC(CC(C)C)C(=O)Nc1ccc(C(=O)NC(C(=O)O)C(C)O)cc1` (stereo not shown) [Compound 9, Haereogladiodin A], the IC50 in the series on HCT116 was more than 20 µM; in “Cytotoxic activity assay” it was 36.1 ± 0.81 µM; in the series on A549, more than 20 µM; with Hela, more than 20 µM; in the series on HepG-2, more than 20 µM; in the series on MCF-7, more than 20 µM. Besides, the IC50 in the series on K562 is more than 20 µM. Moreover, the minimum inhibitory concentration (MIC) in series [1], in [2], in series [3] (setting [5]) and in [4] was more than 100 µM each time.
With `CC=C(NC(=O)CCCCCCC)C(=O)NC(=CC)C(=O)NC(Cc1ccc(O)cc1)C(=O)O` (stereo not shown) [Compound 10, Haereogladiodin B], the IC50 with HCT116 is more than 20 µM; in “Cytotoxic activity assay”, 33.9 ± 0.75 µM; in the series on A549, more than 20 µM; with Hela, more than 20 µM; in the series on HepG-2 it was more than 20 µM; in the series on MCF-7, more than 20 µM. Also, in the series on K562, the IC50 was more than 20 µM. The MIC in [1], in [2], in series [3] (setting [5]) and in series [4] was more than 100 µM in each case.
As for `COc1cccc2c1C(=O)c1c(O)c3c(c(O)c1C2=O)C[C@@](O)(C(=O)CO)C[C@@H]3O[C@H]1C[C@H](N)[C@H](O)[C@H](C)O1` [adriamycin, reference compound], the 50% inhibitory concentration (IC50) was found to be 0.73 ± 0.05 µM in the series on HCT116; 1.47 ± 0.15 µM in the series “Cytotoxic activity assay” (293T cells (normal cell line)); 0.61 ± 0.03 µM in the series with A549; 0.61 ± 0.07 µM with Hela; 0.68 ± 0.001 µM in the series with HepG-2; 0.86 ± 0.07 µM in the series with MCF-7. Moreover, the IC50 in the series with K562 worked out at 0.57 ± 0.02 µM.
